This passage reports S/N results from patent publication US9341616B2, “Sweet taste receptor chimeric proteins and use thereof” (AJINOMOTO CO., INC., priority 2014, dated 2016).

Residues, ends and D or L forms follow the SMILES beside them.

Sequence of hT1R2/T1R3mosaicC (Q8TE23 20-839, stated change not applied): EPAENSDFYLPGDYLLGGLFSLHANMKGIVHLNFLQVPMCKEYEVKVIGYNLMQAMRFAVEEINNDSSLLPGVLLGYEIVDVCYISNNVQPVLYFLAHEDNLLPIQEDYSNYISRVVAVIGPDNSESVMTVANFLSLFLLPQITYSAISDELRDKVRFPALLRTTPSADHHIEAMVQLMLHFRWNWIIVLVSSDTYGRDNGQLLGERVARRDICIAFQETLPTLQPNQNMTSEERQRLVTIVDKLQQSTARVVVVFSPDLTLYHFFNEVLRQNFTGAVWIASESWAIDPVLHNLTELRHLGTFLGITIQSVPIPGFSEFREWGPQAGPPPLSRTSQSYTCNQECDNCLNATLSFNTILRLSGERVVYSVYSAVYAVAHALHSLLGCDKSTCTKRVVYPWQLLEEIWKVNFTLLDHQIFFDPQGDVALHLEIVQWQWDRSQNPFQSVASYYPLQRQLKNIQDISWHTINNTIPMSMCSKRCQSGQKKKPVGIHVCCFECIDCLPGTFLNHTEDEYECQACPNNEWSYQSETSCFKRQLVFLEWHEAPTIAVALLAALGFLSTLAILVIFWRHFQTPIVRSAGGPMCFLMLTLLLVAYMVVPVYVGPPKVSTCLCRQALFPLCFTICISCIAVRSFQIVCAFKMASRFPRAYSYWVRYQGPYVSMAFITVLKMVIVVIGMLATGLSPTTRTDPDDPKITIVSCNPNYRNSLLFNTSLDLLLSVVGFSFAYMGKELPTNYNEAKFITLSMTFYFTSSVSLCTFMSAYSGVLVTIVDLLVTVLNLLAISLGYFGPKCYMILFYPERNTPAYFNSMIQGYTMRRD
Sequence of hT1R2/T1R3mosaicC (Q925D8 with tags, fused parts or gaps with the stated changes limits assumed): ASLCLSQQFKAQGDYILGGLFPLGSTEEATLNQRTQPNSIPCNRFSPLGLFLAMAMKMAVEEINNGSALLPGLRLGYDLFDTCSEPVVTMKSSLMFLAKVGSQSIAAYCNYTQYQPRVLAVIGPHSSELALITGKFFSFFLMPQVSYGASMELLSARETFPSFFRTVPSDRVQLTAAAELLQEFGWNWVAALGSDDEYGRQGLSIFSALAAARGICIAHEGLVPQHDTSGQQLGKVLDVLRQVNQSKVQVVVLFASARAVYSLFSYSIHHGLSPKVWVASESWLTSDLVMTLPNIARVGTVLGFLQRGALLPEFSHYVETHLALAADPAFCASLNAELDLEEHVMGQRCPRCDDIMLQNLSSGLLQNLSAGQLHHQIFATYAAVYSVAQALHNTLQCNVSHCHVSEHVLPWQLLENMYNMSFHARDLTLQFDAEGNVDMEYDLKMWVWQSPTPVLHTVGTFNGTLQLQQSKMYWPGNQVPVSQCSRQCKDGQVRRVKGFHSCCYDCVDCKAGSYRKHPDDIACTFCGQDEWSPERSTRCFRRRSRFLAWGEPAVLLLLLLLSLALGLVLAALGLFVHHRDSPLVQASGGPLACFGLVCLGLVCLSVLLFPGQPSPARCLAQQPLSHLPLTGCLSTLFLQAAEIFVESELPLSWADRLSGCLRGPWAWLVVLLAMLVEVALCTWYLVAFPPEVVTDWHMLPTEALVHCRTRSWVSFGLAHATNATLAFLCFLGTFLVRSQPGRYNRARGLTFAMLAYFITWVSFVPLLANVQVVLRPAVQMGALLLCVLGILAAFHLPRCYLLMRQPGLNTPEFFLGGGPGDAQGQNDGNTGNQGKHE

This assay addresses hT1R2/T1R3mosaicC (UniProt Q8TE23+Q925D8, A558R/A588V/A645S/A698V/A702T/A793V/A807V/C582S/C678S/D172E/D176A/D217E/E221Q/E725V/F541I/F612A/F622V/F695L/H728R/I617V/I706V/I740A/I803L/K555R/K565R/K818R/K827G/L560F/L684P/L735F/L823M/L825Q/M644L/M744T/N203E/N231A/N547G/N675D/P545F/P561R/P564S/Q195T/Q550E/Q611L/Q757R/Q795R/Q831P/R173L/R632Q/S168G/S205G/S228A/S576L/S595F/S610P/S635P/S637R/S679G/S717H/T199E/T542A/T663I/T694M/T813A/V197A/V198A/V573A/V584A/V718M/V723A/V729T/V738A/V805L/V812A/V821L/W599R/W676R/W824R/Y680C/Y794L). As to conditions: Table 6; genes hT2/T1R3mC (hT1R2, T1R3mC); HEK293E cells. As for the experimental part:
The HEK293E cells maintained by using the DMEM/Ham's F-12 medium (Nakarai Tesque) containing 10% fetal bovine serum ([…]) and 1% Pen Strep (GIBCO) were washed with D-PBS(−) (Nakarai Tesque), and collected from the flask by using 0.25% Trypsin EDTA (GIBCO). The cells were centrifuged (1,200 rpm, 3 minutes), and after the supernatant was removed, suspended in 5% FBS DMEM/Ham's F-12 at a density of 0.75×10^7 cell/ml. This suspension (10 ml) was put into a […] (IWAKI), and culture was performed overnight (37° C., 5% CO2). On the next day, the medium was exchanged with Opti-MEM (30 ml, Invitrogen, Life Technologies), a sweet taste receptor gene mixture (Gα15-trans48LD gene, various kinds of T1R2 chimeric genes, and various kinds of T1R3 chimeric genes, 63.8 μg in total) prepared by using Opti-MEM and Lipofectamin 2000 (Invitrogen, Life Technologies) was slowly added to the cell suspension, and incubation was performed (37° C., 5% CO2) for 6 hours to attain gene transfer.
After the gene transfer, the cells were washed with D-PBS(−), then removed from the flask by using 0.25% Trypsin EDTA (GIBCO), and collected. After the cell number was counted, the cells were suspended in the 5% FBS DMEM medium (2.78 mM glucose, GIBCO) at a density of 0.5×10^6 cell/ml. This cell suspension was put into wells of D-Lysine coat 96-well plate (BD bioscience) in such a volume that the cell count is 7.0×10^4 cells/well, and the cells were cultured overnight.
After the culture, all the medium of the 96 wells were discarded. 200 μl of the staining solution for measurement of intracellular calcium ion′ Calcium Assay Kit Express (Molecular Device), diluted 80 times with an assay buffer (20 mM HEPES, 146 mM NaCl, 1 mM MgSO4, 1.39 mM glucose, 1 mM CaC12, 2.5 mM Probenecid, 0.05% bovine serum albumin) was added to each well, and the plate was left standing at 37° C. for 30 minutes and at room temperature for 45 minutes to perform staining. After the staining, 50 μl of a solution of stimulant (sweet taste substance) prepared with the assay buffer was added to each well, and the fluorescence value was measured for 120 seconds after the stimulation by using FDSSμEELL (Hamamatsu Photonics). By measuring the fluorescence value (Ex. 480 nm, Em. 540 nm) before and after the stimulation, the change of the intracellular free calcium ion concentration caused by addition of the stimulant via a sweet taste receptor was quantitatively investigated. The measurement and analysis of the fluorescence value was performed by using the software attached to FDSSμEELL (FDSS7000EX), and ΔF/F value was calculated in accordance with the following equation, and used for the evaluation. ΔF/F=(Maximum fluorescence value after stimulation−Minimum fluorescence value after stimulation)/(Fluorescence value before stimulation)
Furthermore, by using the ΔF/F values obtained when each sweet taste substance was added, the S/N ratio was calculated. Specifically, the S/N value was calculated by using the minimum value of ΔF/F obtained when each substance was added at various concentrations as noise (N) value, and the similarly obtained maximum value of ΔF/F as the signal (S) value, and used as an index for sensitivity of the measurement of the activity of each receptor. That is, a higher S/N value means a higher sensitivity for detection of an interaction of a sweet taste receptor and a test substance, which makes it easier to detect stimulation with a sweet taste substance or sweet taste-regulating substance of a lower concentration.
The sweet taste substances used as the stimulating substance are acesulfame potassium (Tokyo Kasei Kogyo), sodium saccharin (WAKO), sucralose (SIGMA), sucrose (WAKO), and neotame (SIGMA), as well as aspartame, advantame, and SC-45647 ([3-[(S)-1-phenylethyl]-2-(4-cyanophenyl)guanidino]acetic acid, which were all synthesized in-house.
The molecule `CC1=CC(=O)NS(=O)(=O)O1` [Acesulfame K, acesulfame potassium] came in with a S/N of 3.2.

For the molecule `COC(=O)[C@H](Cc1ccccc1)NC(=O)[C@H](CC(=O)O)NCCCc1ccc(OC)c(O)c1` [Advantame, advantame], the S/N is given as 7.8.

`COC(=O)[C@H](Cc1ccccc1)NC(=O)[C@@H](N)CC(=O)O` [Aspartame, aspartame] (HELM PEPTIDE1{D.F.[CO[*:1]]}$$$$V2.0) registered a S/N of 4.5.

`COc1ccc(CCC(=O)c2c(O)cc(O[C@@H]3O[C@H](CO)[C@@H](O)[C@H](O)[C@H]3O[C@@H]3O[C@@H](C)[C@H](O)[C@@H](O)[C@H]3O)cc2O)cc1O` [NHDC, neohesperidin dihydrochalcone] had a S/N of 3.8. With `COC(=O)[C@H](Cc1ccccc1)NC(=O)[C@H](CC(=O)O)NCCC(C)(C)C` [Neotame, neotame] the figure was 7.1; with `C[C@H](NC(=Nc1ccc(C#N)cc1)NCC(=O)O)c1ccccc1` [SC-45647, [3-[(S)-1-phenylethyl]-2-(4-cyanophenyl)guanidino]acetic acid], 5.4; with `O=C1NS(=O)(=O)c2ccccc21.[Na]` [Saccharin Na, sodium saccharin], 3.6. As to `OC[C@H]1O[C@H](O[C@]2(CCl)O[C@H](CCl)[C@@H](O)[C@@H]2O)[C@H](O)[C@@H](O)[C@H]1Cl` [Sucralose, sucralose], the S/N is given as 5.7. As for `OC[C@H]1O[C@@](CO)(O[C@H]2O[C@H](CO)[C@@H](O)[C@H](O)[C@H]2O)[C@@H](O)[C@@H]1O` [Sucrose, sucrose], the S/N was 3.4.
